Measured values as given in publication PMC5218480 (PLoS ONE, 2017).

Test system: MV-4-11 cells
Test: Gene expression microarray analysis (Affymetrix PrimeView) and GSEA
Type: cell-based, human
Design: RFU PODN (11730768_x_at) / Fold change /veh PODN (11730768_x_at) / RFU LINC00158 (11744669_a_at) / Fold change /veh LINC00158 (11744669_a_at) / RFU DUSP10 (11751237_a_at) / Fold change /veh DUSP10 (11751237_a_at) / RFU ID3 (11757404_x_at) / Fold change /veh ID3 (11757404_x_at) / RFU PLEKHG5 (11737974_s_at) / Fold change /veh PLEKHG5 (11737974_s_at) / RFU LRRC4B (11730491_at) / Fold change /veh LRRC4B (11730491_at) / RFU GIMAP4 (11747438_a_at) / Fold change /veh GIMAP4 (11747438_a_at) / RFU KRT8 (11758183_x_at) / Fold change /veh KRT8 (11758183_x_at) / RFU CNN1 (11734310_a_at) / Fold change /veh CNN1 (11734310_a_at) / RFU VPS37D (11726825_at) / Fold change /veh VPS37D (11726825_at) / RFU C10orf10 (11716522_x_at) / Fold change /veh C10orf10 (11716522_x_at) / RFU KIR2DL2 /// KIR2DL4 /// KIR2DL5A /// KIR2DL5B /// KIR2DS1 /// KIR2DS2 /// KIR2DS3 /// KIR2DS4 /// KIR3DL3 /// KIR3DL3 /// KIR3DS1 (11738374_at) / Fold change /veh KIR2DL2 /// KIR2DL4 /// KIR2DL5A /// KIR2DL5B /// KIR2DS1 /// KIR2DS2 /// KIR2DS3 /// KIR2DS4 /// KIR3DL3 /// KIR3DL3 /// KIR3DS1 (11738374_at) / RFU C1QL1 (11718748_at) / Fold change /veh C1QL1 (11718748_at) / RFU TMPRSS4 (11747572_a_at) / Fold change /veh TMPRSS4 (11747572_a_at) / RFU HAMP (11756126_x_at) / Fold change /veh HAMP (11756126_x_at) / RFU RNFT2 (11725882_a_at) / Fold change /veh RNFT2 (11725882_a_at) / RFU NR4A2 (11747474_a_at) / Fold change /veh NR4A2 (11747474_a_at) / RFU ABCC12 (11746883_a_at) / Fold change /veh ABCC12 (11746883_a_at) / RFU TMEM136 (11760407_x_at) / Fold change /veh TMEM136 (11760407_x_at) / RFU CLDN22 /// WWC2 (11732394_at) / Fold change /veh CLDN22 /// WWC2 (11732394_at) / RFU HLA-DPB1 (11760878_x_at) / Fold change /veh HLA-DPB1 (11760878_x_at) / RFU SPINT1 (11716480_a_at) / Fold change /veh SPINT1 (11716480_a_at) / RFU GAP43 (11754022_s_at) / Fold change /veh GAP43 (11754022_s_at) / RFU A4GNT (11735810_at) / Fold change /veh A4GNT (11735810_at) / RFU PRB3 (11715151_x_at) / Fold change /veh PRB3 (11715151_x_at) / RFU TUBB4B (11761932_at) / Fold change /veh TUBB4B (11761932_at) / RFU CAPN14 (11732068_a_at) / Fold change /veh CAPN14 (11732068_a_at) / RFU TMCC2 (11721928_a_at) / Fold change /veh TMCC2 (11721928_a_at) / RFU IRGQ (11745062_a_at) / Fold change /veh IRGQ (11745062_a_at) / RFU FAM174B (11720279_a_at) / Fold change /veh FAM174B (11720279_a_at) / RFU TMPRSS4 (11748680_a_at) / Fold change /veh TMPRSS4 (11748680_a_at) / RFU FAM212B (11763350_a_at) / Fold change /veh FAM212B (11763350_a_at) / RFU PLEKHG5 (11743358_a_at) / Fold change /veh PLEKHG5 (11743358_a_at) / RFU ZSCAN30 (11745921_a_at) / Fold change /veh ZSCAN30 (11745921_a_at) / RFU CMKLR1 (11741424_a_at) / Fold change /veh CMKLR1 (11741424_a_at) / RFU LOC101060620 /// MAPK8IP1 (11723275_at) / Fold change /veh LOC101060620 /// MAPK8IP1 (11723275_at) / RFU SPTSSB (11747773_x_at) / Fold change /veh SPTSSB (11747773_x_at) / RFU PRSS12 (11739890_at) / Fold change /veh PRSS12 (11739890_at) / RFU BIN1 (11741810_x_at) / Fold change /veh BIN1 (11741810_x_at) / RFU WNT11 (11732464_a_at) / Fold change /veh WNT11 (11732464_a_at) / RFU C10orf10 (11716521_a_at) / Fold change /veh C10orf10 (11716521_a_at) / RFU C5orf56 (11738089_at) / Fold change /veh C5orf56 (11738089_at) / RFU CYB561 (11721691_x_at) / Fold change /veh CYB561 (11721691_x_at) / RFU ANKRD19P (11752326_a_at) / Fold change /veh ANKRD19P (11752326_a_at) / RFU OR2T12 /// OR2T33 /// OR2T8 (11738714_s_at) / Fold change /veh OR2T12 /// OR2T33 /// OR2T8 (11738714_s_at) / RFU VCAN (11748164_a_at) / Fold change /veh VCAN (11748164_a_at) / RFU JSRP1 (11732532_at) / Fold change /veh JSRP1 (11732532_at) / RFU KRTAP10-11 (11738290_x_at) / Fold change /veh KRTAP10-11 (11738290_x_at) / RFU MYO3A (11730013_a_at) / Fold change /veh MYO3A (11730013_a_at) / RFU EBF3 (11725865_a_at) / Fold change /veh EBF3 (11725865_a_at) / RFU CAMK2N1 (11719241_x_at) / Fold change /veh CAMK2N1 (11719241_x_at) / RFU C5orf56 (11738088_a_at) / Fold change /veh C5orf56 (11738088_a_at) / RFU OLFML3 (11715873_a_at) / Fold change /veh OLFML3 (11715873_a_at) / RFU LOC100653217 /// NTM (11731650_a_at) / Fold change /veh LOC100653217 /// NTM (11731650_a_at) / RFU MAPK11 (11762145_a_at) / Fold change /veh MAPK11 (11762145_a_at) / RFU FIZ1 (11724087_x_at) / Fold change /veh FIZ1 (11724087_x_at) / RFU OASL (11726364_x_at) / Fold change /veh OASL (11726364_x_at) / RFU SOX15 (11748057_x_at) / Fold change /veh SOX15 (11748057_x_at) / RFU CD79A (11719716_a_at) / Fold change /veh CD79A (11719716_a_at) / RFU HIST1H1D (11736915_at) / Fold change /veh HIST1H1D (11736915_at) / RFU CASKIN2 (11723855_a_at) / Fold change /veh CASKIN2 (11723855_a_at) / RFU LOC730098 (11760151_x_at) / Fold change /veh LOC730098 (11760151_x_at) / RFU OR4N2 (11742367_at) / Fold change /veh OR4N2 (11742367_at) / RFU PRRT2 (11749266_a_at) / Fold change /veh PRRT2 (11749266_a_at) / RFU SNX32 (11753110_a_at) / Fold change /veh SNX32 (11753110_a_at) / RFU CDHR5 (11726645_a_at) / Fold change /veh CDHR5 (11726645_a_at) / RFU RCAN1 (11760418_a_at) / Fold change /veh RCAN1 (11760418_a_at) / RFU FAM167A (11723789_a_at) / Fold change /veh FAM167A (11723789_a_at) / RFU FAM26E (11764081_at) / Fold change /veh FAM26E (11764081_at) / RFU ISYNA1 (11749810_s_at) / Fold change /veh ISYNA1 (11749810_s_at) / RFU ACY1 (11761880_at) / Fold change /veh ACY1 (11761880_at) / RFU 11764098_at / Fold change /veh 11764098_at / RFU SAMD14 (11745864_x_at) / Fold change /veh SAMD14 (11745864_x_at) / RFU NPB (11741838_a_at) / Fold change /veh NPB (11741838_a_at) / RFU TMPRSS6 (11731388_a_at) / Fold change /veh TMPRSS6 (11731388_a_at) / RFU KRTAP10-2 (11738614_at) / Fold change /veh KRTAP10-2 (11738614_at) / RFU ARHGAP8 /// PRR5-ARHGAP8 (11727945_x_at) / Fold change /veh ARHGAP8 /// PRR5-ARHGAP8 (11727945_x_at) / RFU KRTAP5-7 /// NADSYN1 (11734609_at) / Fold change /veh KRTAP5-7 /// NADSYN1 (11734609_at) / RFU RASL12 (11751679_a_at) / Fold change /veh RASL12 (11751679_a_at) / RFU CDKN2B (11736163_a_at) / Fold change /veh CDKN2B (11736163_a_at) / RFU PRF1 (11729649_at) / Fold change /veh PRF1 (11729649_at) / RFU, ZNF638 /// ZNF638-IT1 / Fold change vs veh, ZNF638 /// ZNF638-IT1 / RFU, PANK3 / Fold change vs veh, PANK3 / RFU, SH3YL1 / Fold change vs veh, SH3YL1 / RFU, ZEB2 / Fold change vs veh, ZEB2 / RFU, NRIP1 / Fold change vs veh, NRIP1 / RFU, PTTG1IP / Fold change vs veh, PTTG1IP / RFU, CAPN2 / Fold change vs veh, CAPN2 / RFU, MED14 / Fold change vs veh, MED14 / RFU, SNORA58 / Fold change vs veh, SNORA58 / RFU, C1orf63 / Fold change vs veh, C1orf63 / RFU, LRRFIP1 / Fold change vs veh, LRRFIP1 / RFU, NDUFAF7 / Fold change vs veh, NDUFAF7 / RFU, SLC12A2 / Fold change vs veh, SLC12A2 / RFU, IBTK / Fold change vs veh, IBTK / RFU, ESF1 / Fold change vs veh, ESF1 / Fold change vs veh, TMEM50B / RFU, TAOK1 / Fold change vs veh, TAOK1 / RFU, ACBD3 / Fold change vs veh, ACBD3 / RFU, TMA16 / Fold change vs veh, TMA16 / RFU, RWDD3 / Fold change vs veh, RWDD3 / RFU, BCAT1 / Fold change vs veh, BCAT1 / RFU, EDEM3 / Fold change vs veh, EDEM3 / RFU, TMEM33 / Fold change vs veh, TMEM33 / RFU, WDR75 / Fold change vs veh, WDR75 / RFU, AHCTF1 / Fold change vs veh, AHCTF1 / RFU, TFRC / Fold change vs veh, TFRC / RFU, ZDHHC17 / Fold change vs veh, ZDHHC17 / RFU, NOM1 / Fold change vs veh, NOM1 / RFU, ARL8B / Fold change vs veh, ARL8B / RFU, ZBTB11 / Fold change vs veh, ZBTB11 / RFU, TAMM41 / Fold change vs veh, TAMM41 / RFU, KIAA1704 /// LOC100996395 / Fold change vs veh, KIAA1704 /// LOC100996395 / RFU, ING1 / Fold change vs veh, ING1 / RFU, TRMT61B / Fold change vs veh, TRMT61B / RFU, FUBP3 / Fold change vs veh, FUBP3 / RFU, TP53 / Fold change vs veh, TP53 / RFU, TNKS2 / Fold change vs veh, TNKS2 / RFU, ZFP14 / Fold change vs veh, ZFP14 / RFU, ACTR2 / Fold change vs veh, ACTR2 / RFU, PPP3R1 / Fold change vs veh, PPP3R1 / RFU, PIK3R1 / Fold change vs veh, PIK3R1 / RFU, HNRNPA1 / Fold change vs veh, HNRNPA1 / RFU, RNF170 / Fold change vs veh, RNF170 / RFU, ZNF28 / Fold change vs veh, ZNF28 / RFU, RNGTT / Fold change vs veh, RNGTT / RFU, OGT / Fold change vs veh, OGT / RFU, BRD1 / Fold change vs veh, BRD1 / RFU, MARS / Fold change vs veh, MARS / RFU, ZNF655 / Fold change vs veh, ZNF655 / RFU, FAHD1 / Fold change vs veh, FAHD1 / RFU, BDP1 / Fold change vs veh, BDP1 / RFU, LRRCC1 / Fold change vs veh, LRRCC1 / RFU, ARID1A / Fold change vs veh, ARID1A / RFU, ZNF146 / Fold change vs veh, ZNF146 / RFU, ZNF330 / Fold change vs veh, ZNF330 / RFU, GPN3 / Fold change vs veh, GPN3 / RFU, C9orf123 / Fold change vs veh, C9orf123 / RFU, N4BP2L2 / Fold change vs veh, N4BP2L2 / RFU, ARFIP1 / Fold change vs veh, ARFIP1 / RFU, FAM179B / Fold change vs veh, FAM179B / RFU, BCL10 / Fold change vs veh, BCL10 / RFU, UHRF1BP1L / Fold change vs veh, UHRF1BP1L / RFU, BET1 / Fold change vs veh, BET1 / RFU, CNOT2 / Fold change vs veh, CNOT2 / RFU, ZNF268 / Fold change vs veh, ZNF268 / Fold change vs veh, ZNF507 / RFU, DGCR2 / Fold change vs veh, DGCR2 / RFU, WDSUB1 / Fold change vs veh, WDSUB1 / Fold change vs veh, HSP90B1 /// MIR3652 / RFU, ADSS / Fold change vs veh, ADSS / RFU, GK / Fold change vs veh, GK / RFU, ZNF148 / Fold change vs veh, ZNF148 / RFU, TAF9 / Fold change vs veh, TAF9 / RFU, SLC1A5 / Fold change vs veh, SLC1A5 / RFU, SLMO2 / Fold change vs veh, SLMO2 / RFU, ABCC4 / Fold change vs veh, ABCC4 / RFU, LOC101060439 /// RAP1B / Fold change vs veh, LOC101060439 /// RAP1B / RFU, RFX7 / Fold change vs veh, RFX7 / RFU, GTPBP10 / Fold change vs veh, GTPBP10 / RFU, CNEP1R1 / Fold change vs veh, CNEP1R1 / RFU, BIVM-ERCC5 /// ERCC5 / Fold change vs veh, BIVM-ERCC5 /// ERCC5 / RFU, ILF3 / Fold change vs veh, ILF3 / RFU 11762660_at / Fold change /veh 11762660_at / RFU VCAN (11757783_s_at) / Fold change /veh VCAN (11757783_s_at) / RFU DDX43 (11728927_at) / Fold change /veh DDX43 (11728927_at) / RFU KRT8 (11758188_x_at) / Fold change /veh KRT8 (11758188_x_at) / RFU NKD1 (11759106_at) / Fold change /veh NKD1 (11759106_at) / RFU SRD5A1 (11742802_a_at) / Fold change /veh SRD5A1 (11742802_a_at) / RFU TPSAB1 /// TPSB2 (11721975_s_at) / Fold change /veh TPSAB1 /// TPSB2 (11721975_s_at) / RFU GSTM3 (11746129_a_at) / Fold change /veh GSTM3 (11746129_a_at) / RFU IL23R (11737362_x_at) / Fold change /veh IL23R (11737362_x_at) / RFU TMEM51 (11727254_a_at) / Fold change /veh TMEM51 (11727254_a_at) / RFU PIWIL2 (11732686_x_at) / Fold change /veh PIWIL2 (11732686_x_at) / RFU ORM1 (11744905_x_at) / Fold change /veh ORM1 (11744905_x_at) / RFU CCDC152 (11743942_at) / Fold change /veh CCDC152 (11743942_at) / RFU ECM1 (11717891_a_at) / Fold change /veh ECM1 (11717891_a_at) / RFU IL23R (11748794_a_at) / Fold change /veh IL23R (11748794_a_at) / RFU TNFAIP8L3 (11732012_x_at) / Fold change /veh TNFAIP8L3 (11732012_x_at) / RFU MBOAT4 (11741988_at) / Fold change /veh MBOAT4 (11741988_at) / RFU 11764193_at / Fold change /veh 11764193_at / RFU TMEM53 (11763286_at) / Fold change /veh TMEM53 (11763286_at) / RFU MAGEB2 (11727129_at) / Fold change /veh MAGEB2 (11727129_at) / RFU TMEM200A (11744735_a_at) / Fold change /veh TMEM200A (11744735_a_at) / RFU CCDC152 (11751479_a_at) / Fold change /veh CCDC152 (11751479_a_at) / RFU FAM211A (11726209_a_at) / Fold change /veh FAM211A (11726209_a_at) / RFU RGS16 (11746705_a_at) / Fold change /veh RGS16 (11746705_a_at) / RFU VCAN (11755009_s_at) / Fold change /veh VCAN (11755009_s_at) / RFU RHOB (11743442_s_at) / Fold change /veh RHOB (11743442_s_at) / RFU RGS16 (11720943_a_at) / Fold change /veh RGS16 (11720943_a_at) / RFU RGS16 (11720944_at) / Fold change /veh RGS16 (11720944_at) / RFU, VPS4B / Fold change vs veh, VPS4B / RFU, CREB1 / Fold change vs veh, CREB1 / RFU, DNAJC13 / Fold change vs veh, DNAJC13 / RFU, GNAQ / Fold change vs veh, GNAQ / RFU, CDK5R1 / Fold change vs veh, CDK5R1 / RFU, ZRANB3 / Fold change vs veh, ZRANB3 / RFU, CUL4A / Fold change vs veh, CUL4A / RFU, CCNY / Fold change vs veh, CCNY / RFU, UFL1 / Fold change vs veh, UFL1 / RFU, COG3 / Fold change vs veh, COG3 / RFU, DIAPH2 / Fold change vs veh, DIAPH2 / RFU, SKA2 / Fold change vs veh, SKA2 / RFU, AFF3 / Fold change vs veh, AFF3 / RFU, LMF1 / Fold change vs veh, LMF1 / RFU, IPO11 / Fold change vs veh, IPO11 / RFU, DFFB / Fold change vs veh, DFFB / RFU, FOXP1 / Fold change vs veh, FOXP1 / RFU, CARD8 / Fold change vs veh, CARD8 / RFU, STRN3 / Fold change vs veh, STRN3 / RFU, ADK / Fold change vs veh, ADK / RFU, RASSF2 / Fold change vs veh, RASSF2 / RFU, WIPF1 / Fold change vs veh, WIPF1 / RFU, LARP1B / Fold change vs veh, LARP1B / RFU, RASA1 / Fold change vs veh, RASA1 / RFU, RB1 / Fold change vs veh, RB1 / RFU, PPFIA1 / Fold change vs veh, PPFIA1 / RFU, MAT2A / Fold change vs veh, MAT2A / RFU, CCT5 / Fold change vs veh, CCT5 / RFU, WDR92 / Fold change vs veh, WDR92 / RFU, CUX1 / Fold change vs veh, CUX1 / RFU, TTC7A / Fold change vs veh, TTC7A / RFU, TMEM135 / Fold change vs veh, TMEM135 / RFU, DEPTOR / Fold change vs veh, DEPTOR / RFU, CPM / Fold change vs veh, CPM / RFU, DNAJB6 / Fold change vs veh, DNAJB6 / RFU, CACNA2D3 / Fold change vs veh, CACNA2D3 / RFU, DTX4 / Fold change vs veh, DTX4 / RFU, TFCP2 / Fold change vs veh, TFCP2 / RFU, GMCL1 /// GMCL1P1 / Fold change vs veh, GMCL1 /// GMCL1P1 / RFU, AEBP2 / Fold change vs veh, AEBP2 / RFU, SNHG1 /// SNORD22 /// SNORD25 /// SNORD26 /// SNORD27 /// SNORD28 /// SNORD29 /// SNORD31 / Fold change vs veh, SNHG1 /// SNORD22 /// SNORD25 /// SNORD26 /// SNORD27 /// SNORD28 /// SNORD29 /// SNORD31 / Fold change (Aza/veh), C12orf56 (ProbeSet 11735607_a_at) / Fold change (ACY-1035/veh), C12orf56 (ProbeSet 11735607_a_at) / Fold change (Aza/veh), FGFR1OP (ProbeSet 11751329_s_at) / Fold change (ACY-1035/veh), FGFR1OP (ProbeSet 11751329_s_at) / Fold change (Aza/veh), VPS36 (ProbeSet 11739960_a_at) / Fold change (ACY-1035/veh), VPS36 (ProbeSet 11739960_a_at) / RFU SYPL1 (11715823_x_at) / Fold change /veh SYPL1 (11715823_x_at) / RFU IGFBP7 (11715501_s_at) / Fold change /veh IGFBP7 (11715501_s_at) / RFU REEP3 (11722064_at) / Fold change /veh REEP3 (11722064_at) / RFU IGLL1 (11728026_x_at) / Fold change /veh IGLL1 (11728026_x_at): dose or concentration left out as unconfirmed
Conditions: MV-4-11 cells, 48 hours

Nc1ccc(-c2cccs2)cc1NC(=O)c1ccc2c(c1)cc(C1CC1)n2CCN1CCOCC1 [ACY-1035]
RFU IRGQ (11745062_a_at): 18.74 RFU
